In patent US20190315823A1, “SMALL CATIONIC ANTI-BIOFILM AND IDR PEPTIDES” (priority 2013, published 2019):
Ends that are not written are not given here.

Experiments:
[1] = tested on: LPS-stimulated human peripheral blood mononuclear cells (IL1-β); type: cell-based; details: Table 12, cells stimulated with 10 ng/ml LPS; for IL1β Production: LPS alone 1313 (HH2 derivatives), 1927 (1018 derivatives), 2455 (1002 and hybrid peptides) pg/ml
Method: LPS from P. aeruginosa strain H103 was highly purified free of proteins and lipids using the Darveau-Hancock method. Briefly, P. aeruginosa was grown overnight in LB broth at 37° C. Cells were collected and washed and the isolated LPS pellets were extracted with a 2:1 chloroform:methanol solution to remove contaminating lipids. Purified LPS samples were quantitated using an assay for the specific sugar 2-keto-3-deoxyoctosonic acid (KDO assay) and then resuspended in endotoxin-free water (Sigma-Aldrich).

[2] = tested on: methicillin resistant Staphylococcus aureus (MRSA) biofilm; details: approximate peptide concentration […] (around 3 μg/ml); compared to untreated samples
Method: Methods of assessment of anti-biofilm activity—Biofilm formation was initially analyzed using a static abiotic solid surface assay as described elsewhere (de la Fuente-Nunez et al., 2012). Dilutions (1/100) of overnight cultures were incubated in BM2 biofilm-adjusted medium [62 mM potassium phosphate buffer (pH 7), 7 mM (NH4)2SO4, 2 mM MgSO4, 10 μM FeSO4, 0.4% (wt/vol) glucose, 0.5% (wt/vol) Casamino Acids], or a nutrient medium such as Luria Broth, in polypropylene microtiter plates (Falcon, United States) in the absence (control) or presence of peptide. Peptide was added at time zero (prior to adding the diluted, overnight cultures) in varying concentrations, and the decrease in biofilm formation was recorded at 22-46 h for most bacteria. Planktonic cells were removed, biofilm cells adhering to the side of the tubes were stained with crystal violet, and absorbance at 595 nm was measured using a microtiter plate reader (Bio-Tek Instruments Inc., United States). Some peptides were screened against two Gram negative organisms, P. aeruginosa and K. pneumoniae using a Bioflux apparatus (AutoMate Scientific, Berkeley, Calif.; http://www.autom8.com/bioflux_biofilm.html), which allows for the high-throughput, real-time analysis of biofilms.

[3] = tested on: human peripheral blood mononuclear cells (MCP-1); experiment: SPOT-synthesized derivative screen: production of chemokine MCP-1; type: cell-based; details: Table 12, No LPS, human PBMC, peptide at ~18-24 μM; for MCP1: background subtracted 139 (HH2 derivatives), 170 (1018 derivatives), 242 (1002 and hybrid peptides) pg/ml
Method: Venous blood (20 ml) from healthy volunteers was collected in Vacutainer® collection tubes containing sodium heparin as an anticoagulant (Becton Dickinson, Mississauga, ON) in accordance with UBC ethical approval and guidelines. Blood was diluted 1:1 with complete RPMI 1640 medium and separated by centrifugation over a Ficoll-Paque® Plus (Amersham Biosciences, Piscataway, N.J., USA) density gradient. White blood cells were isolated from the buffy coat, washed twice in RPMI 1640 complete medium, and the number of peripheral blood mononuclear cells (PBMC) was determined by Trypan blue exclusion. PBMC (5×10^5) were seeded into 12-well tissue culture dishes (Falcon; Becton Dickinson) at 0.75 to 1×10^6 cells/ml at 37° C. in 5% CO2. The above conditions were chosen to mimic conditions for circulating blood monocytes entering tissues at the site of infection via extravasation.
Following incubation of the cells under various treatment regimens, the tissue culture supernatants were centrifuged at 1000×g for 5 min, then at 10,000×g for 2 min to obtain cell-free samples. Supernatants were aliquoted and then stored at −20° C. prior to assay for various chemokines by capture ELISA (eBioscience and BioSource International Inc., CA, USA respectively)

Substance | Fold change in IL1β relative to no peptide LPS stimulated cells [1] | IL1β Production [1] [pg/mL] | % Biofilm inhibition [2] [%] | Fold increase in MCP1 cf. untreated cells [3] | MCP1 [3] [pg/mL]
HH2-W12: single substituted HH2 peptide (VQLRIRVAVIRW-NH2) | 0.32 | 420 | 58 | 44 | 7325
1018-G3: single substituted 1018 peptide (VRGIVAVRIWRR-NH2) [Peptide 1018-G3] | 0.57 | 748 | 42 | 1.5 | 83
1002-A3: single substituted 1002 peptide (VQAWLIVWRIRK-NH2) [Peptide 1002-A3] | 0.05 | 127 | 65 | 4.2 | 787.2
1002-L9: single substituted 1002 peptide (VQRWLIVWLIRK-NH2) [Peptide 1002-L9] | 0.05 | 127 | 57 | 1.8 | 199.1
1018-V10: single substituted 1018 peptide (VRLIVAVRIVRR-NH2) [Peptide 1018-V10] | 0.28 | 370 | 50 | 1.2 | 29
HH2-A7: single substituted HH2 peptide (VQLRIRAAVIRA-NH2) | 1.30 | 1713 | 57 | 1.3 | 59
HH2-W11: single substituted HH2 peptide (VQLRIRVAVIWA-NH2) | 1.04 | 1362 | 45 | 15 | 2309
1002-K8: single substituted 1002 peptide (VQRWLIVKRIRK-NH2) [Peptide 1002-K8] | 0.66 | 1632 | 0 | 0.9 | -36.2
1002-A10: single substituted 1002 peptide (VQRWLIVWRARK-NH2) [Peptide 1002-A10] | 0.05 | 127 | 45 | 2.0 | 245.4
HH2-A5: single substituted HH2 peptide (VQLRARVAVIRA-NH2) | 1.60 | 2095 | 45 | 1.3 | 59
HH2-L10: single substituted HH2 peptide (VQLRIRVAVLRA-NH2) | 1.04 | 1359 | 63 | 21 | 3338
1018-W1: single substituted 1018 peptide (WRLIVAVRIWRR-NH2) [Peptide 1018-W1] | 0.16 | 204 | 68 | 5.0 | 684
HH2-R1: single substituted HH2 peptide (RQLRIRVAVIRA-NH2) | 1.50 | 1965 | 53 | 25 | 4034
1002-K1: single substituted 1002 peptide (KQRWLIVWRIRK-NH2) [Peptide 1002-K1] | 0.05 | 127 | 75 | 26.4 | 6146.9
1002-A11: single substituted 1002 peptide (VQRWLIVWRIAK-NH2) [Peptide 1002-A11] | 0.05 | 127 | 52 | 3.0 | 485.3
1002-G12: single substituted 1002 peptide (VQRWLIVWRIRG-NH2) [Peptide 1002-G12] | 0.10 | 240 | 50 | 0.9 | -36.2
1018-A8: single substituted 1018 peptide (VRLIVAVAIWRR-NH2) [Peptide 1018-A8] | 0.10 | 127 | 60 | 3.7 | 460
1018-R7: single substituted 1018 peptide (VRLIVARRIWRR-NH2) [Peptide 1018-R7] | 1.68 | 2201 | 0 | 1.9 | 161
1002-W7: single substituted 1002 peptide (VQRWLIWWRIRK-NH2) [Peptide 1002-W7] | 0.05 | 127 | 62 | 1.5 | 128.3
1018-K11: single substituted 1018 peptide (VRLIVAVRIWKR-NH2) [Peptide 1018-K11] | 0.13 | 170 | 68 | 9.3 | 1419
HH2-V12: single substituted HH2 peptide (VQLRIRVAVIRV-NH2) | 0.85 | 1119 | 65 | 33 | 5492
1018-L11: single substituted 1018 peptide (VRLIVAVRIWLR-NH2) [Peptide 1018-L11] | 1.12 | 1467 | 4 | 1.7 | 118
1002-K6: single substituted 1002 peptide (VQRWLKVWRIRK-NH2) [Peptide 1002-K6] | 0.33 | 808 | 2 | 0.9 | -36.2
1018-L9: single substituted 1018 peptide (VRLIVAVRLWRR-NH2) [Peptide 1018-L9] | 0.13 | 171 | 52 | 1.4 | 66
1002-G3: single substituted 1002 peptide (VQGWLIVWRIRK-NH2) [Peptide 1002-G3] | 0.05 | 127 | 56 | 14.0 | 3157.8
